This is an account of results in ChEMBL document CHEMBL1201862, “PubChem BioAssay data set” (2004).

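In this assay, cells in 96-well plates receive the compound at five concentrations for 48 hours. Endpoints are linearly interpolated between the surrounding concentrations. The concentration for 50% growth inhibition is given as GI50.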 Active and inactive are the calls of the source. Cut-off read from the data, not from the text of the source: active = GI50 up to about 1.1 µM and inactive = higher.

Test systems include ACHN; CCRF-CEM; DU-145; HCT-15; HL-60; HT-29; K562; LOX IMVI; MDA-MB-231; MDA-MB-435; NCI-H522; OVCAR-3; OVCAR-4; OVCAR-5; PC-3; SF-539; T47D; U-251; UACC-257; UO-31.
Assay in all cases: NCI-60 cell line screen, 48 h

`O=C1C(c2ccccc2)=C(c2ccccc2)C1(Cl)Cl`: the GI50 in the assay on ACHN was 2640 nM (inactive); in the assay on CCRF-CEM, 1010 nM (active); in the assay on DU-145, 11700 nM (inactive); in the assay with HCT-15 it was 2070 nM; in the assay with HL-60, 736 nM (active); in the assay with HT-29 it was 3150 nM (inactive). Besides, the GI50 in the assay on K562 was 1910 nM (inactive); in the assay with LOX IMVI, 1930 nM (inactive); with MDA-MB-231, 3280 nM (inactive); in the assay on MDA-MB-435, 2430 nM (inactive); in the assay on NCI-H522, 2120 nM (inactive); in the assay on OVCAR-3, 2620 nM (inactive). The GI50 in the assay with OVCAR-4 was 3670 nM (inactive); with OVCAR-5 it was 7820 nM (inactive); in the assay with PC-3 it was 4370 nM (inactive); in the assay on SF-539, 3050 nM (inactive); in the assay with T47D, 3180 nM (inactive); in the assay on U-251, 2840 nM (inactive). Also, the GI50 with UACC-257 is 2710 nM (inactive); with UO-31, 3610 nM (inactive).
